Each molecule was assayed on human T lymphocyte strain Jurkat (ATCC TIB-152) adhesion to ICAM-1 (assay: T-cell adhesion assay (Jurkat cells on ICAM-1 coated plates)). Conditions: Homo sapiens; BCECF-AM labelled Jurkat cells, ICAM-1 coated plate, fluorescence readout; read-out: EC50 of cell adhesion and inhibition.
Format: cell-based
Procedure: Cell Adhesion Inhibition Experiments:
T-cell adhesion assay was performed using human T lymphocyte strain Jurkat (ATCC TIB-152): goat Anti-Human IgG (Fc specific) (Sigma 18885) was diluted to 10 μg/ml in PBS, incubated 100 μL per well/96 well plate at 4° C. for 12 hours. Liquid in the well plate was poured off, blocked with 200 μL of 1% BSA at 37° C. for 90 minutes, and washed three times with PBS. 50 μL of 1 μg/mL ICAM-1 (containing 0.1% BSA, 0.01% Tween 20) was added to each well and incubated at 37° C. for 3 hours. The plate was washed 3 times with assay buffer (20 mM HEPES pH 7.6, 140 mM NaCl, 1 mM MgCl2, 1 mM MnCl2, 0.2% glucose).
The Jurkat […] was centrifuged at 100-G, and cells were resuspended in an assay buffer (20 mM HEPES pH 7.6, 140 mM NaCl, 1 mM MgCl2, 1 mM MnCl2, 0.2% glucose) at 37° C.
2 μl of 1 mM of BCECF-AM per mL of the cell suspension was added. Incubated at 37° C. for 30 minutes, stirred up every 10 minutes during the incubation. After the incubation, the cells were washed with assay buffer at 37° C. The cells were suspended to a concentration of 6×10^6/mL.
The inhibitor was diluted to a final concentration of 2× in assay buffer, and 50 μL of the compound solution and […] of Jurkat cells were mixed at room temperature, and incubated at 37° C. for 30 minutes. 100 μL/well of cells and inhibitors were added to the plate and incubated for 1 hour at room temperature. The total fluorescence was measured by a fluorometer: ex: 485; em: 530; cutoff: 530 to measure the total fluorescence. The plate was washed once with the assay buffer and the fluorescence was measured with a fluorometer: ex: 485; em: 530; cutoff. The results are plotted as inhibition-concentration plots and EC50 is calculated using standard methods.
`CP(=O)(CCc1cc(Cl)c(C(=O)N[C@@H](CN/C(=N\C#N)N2C[C@@H](O)[C@H](O)C2)C(=O)O)c(Cl)c1)c1cccc(O)c1` (stereo partly drawn) [Example 45, (2s)-3-((trans)-N′-cyano-3,4-dihydroxypyrrolidine-1-formamidino)-2-(2,6-dichloro-4-(2-(methyl(3-hydroxyphenyl)phosphoryl)ethyl)benzamido)propionic Acid] was tested, and the EC50 was greater than 1000 nM. In the case of `CP(=O)(CCc1cc(Cl)c(C(=O)N[C@@H](CN/C(=N\C#N)N(CCO)CCO)C(=O)O)c(Cl)c1)c1cccc(O)c1` (stereo partly shown) [Example 46, (2s)-3-(2-cyano-3,3-bis(2-hydroxyethyl)guanidino)-2-(2,6-dichloro-4-(2-(methyl(3-hydroxyphenyl)phosphoryl)ethyl)benzamido)propionic Acid], the EC50 is reported as greater than 1000 nM. `COP(=O)(C#Cc1cc(Cl)c(C(=O)N[C@@H](Cc2cccc(S(C)(=O)=O)c2)C(=O)O)c(Cl)c1)c1ccccc1O` (stereo partly shown) [Example 47] showed an EC50 of 340 nM. `CP(=O)(C#Cc1cc(Cl)c(C(=O)N[C@@H](Cc2cccc(S(C)(=O)=O)c2)C(=O)O)c(Cl)c1)c1ccc(O)c(Cl)c1` (stereo partly shown) [Example 48] was tested, and the EC50 was 6.8 nM. `CS(=O)(=O)c1cccc(C[C@H](NC(=O)c2c(Cl)cc(C#CP(=O)(O)c3ccc4ccoc4c3)cc2Cl)C(=O)O)c1` [Example 49] was tested, and the EC50 was 10.8 nM. `CS(=O)(=O)c1cccc(C[C@H](NC(=O)c2c(Cl)cc(C(O)CP(=O)(O)c3cccc(O)c3)cc2Cl)C(=O)O)c1` (stereo partly shown) [Example 50, (2s)-2-(2,6-dichloro-4-(1-hydroxy 2-(hydroxy(3-hydroxyphenyl)phosphoryl)ethyl)benzamido)-3-(3-(methylsulfonyl)phenyl)propionic Acid] was tested, and the EC50 was 16 nM. For `CS(=O)(=O)c1cccc(C[C@H](NC(=O)c2c(Cl)cc(/C=C/P(=O)(O)c3cccc(O)c3)cc2Cl)C(=O)O)c1` [Example 51, (2s)-2-(2,6-dichloro-4-(2-(hydroxy(m-hydroxyphenyl)phosphoryl)vinyl)benzamido)-3-(3-(methylsulfonyl)phenyl)propionic Acid], the EC50 was 4.2 nM. Work on `CS(=O)(=O)c1cccc(C[C@H](NC(=O)c2c(Cl)cc(/C=C/P(=O)(c3cccc(O)c3)c3cccc(O)c3)cc2Cl)C(=O)O)c1` [Example 52, (S,E)-2-(4-(2-(bis(3-hydroxyphenyl)phosphonyl)vinyl)-2,6-dichlorobenzamido)-3-(3-(methylsulfonyl)phenyl)propionic Acid] yielded an EC50 of 74 nM. `CS(=O)(=O)c1cccc(C[C@H](NC(=O)c2c(Cl)cc(CCP(=O)(c3cccc(O)c3)c3cccc(O)c3)cc2Cl)C(=O)O)c1` [Example 53, (S,E)-2-(4-(2-(bis(3-hydroxyphenyl)phosphonyl)ethyl)-2,6-dichlorobenzamido)-3-(3-(methylsulfonyl)phenyl)propionic Acid] gave an EC50 of 22 nM. With `CCOP(=O)(/C=C/c1cc(Cl)c(C(=O)N[C@@H](Cc2cccc(S(C)(=O)=O)c2)C(=O)O)c(Cl)c1)c1ccc(O)cc1` (stereo partly shown) [Example 54] the EC50 was 9.6 nM. With `CC(C)P(=O)(CCc1cc(Cl)c(C(=O)N[C@@H](Cc2cccc(S(C)(=O)=O)c2)C(=O)O)c(Cl)c1)c1cccc(O)c1` (stereo partly shown) [Example 56] the EC50 was 63 nM. For `CS(=O)(=O)c1cccc(C[C@H](NC(=O)c2c(Cl)cc(/C=C/P(=O)(c3cccc(O)c3)C3CC3)cc2Cl)C(=O)O)c1` (stereo partly shown) [Example 57], the EC50 was 5.3 nM. Work on `CP(=O)(/C=C/c1cc(Cl)c(C(=O)N[C@@H](Cc2cccc(S(C)(=O)=O)c2)C(=O)O)c(Cl)c1)c1cccc(O)c1` (stereo partly shown) [Example 58] yielded an EC50 of 1.9 nM.
